Reference: the supplement of paper PMC10307832

How the values were obtained:
Assay in all cases: relative viability (nuclei count vs DMSO), 5 days (fraction); higher = more cells survive
Sulindac + AZD7762 = compound: CC1=C(CC(=O)O)c2cc(F)ccc2/C1=C\c1ccc([S+](C)[O-])cc1 [Sulindac] + NC(=O)Nc1cc(-c2cccc(F)c2)sc1C(=O)N[C@H]1CCCNC1 [AZD7762] (partner 0.2 µM)
Outline: (§1)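 Each reported value is a median over duplicate plates. It expresses relative viability: treated-well nuclei count divided by vehicle-well nuclei count. Lung cancer cell lines in 1536-well plates were dosed by pin tool a day after seeding, alone with one drug or with a fixed anchor-drug dose plus five library-drug doses (not always all listed) in √10 steps, and nuclei were counted after 5 days.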

[1] = compound: CN[C@@H]1C[C@H]2O[C@@](C)([C@@H]1OC)n1c3ccccc3c3c4c(c5c6ccccc6n2c5c31)C(=O)NC4 [Staurosporine] + CC(=O)c1c(C)c2cnc(Nc3ccc(N4CCNCC4)cn3)nc2n(C2CCCC2)c1=O [Palbociclib] (partner 0.5 µM)
Outline: as §1

[2] = compound: CN[C@@H]1C[C@H]2O[C@@](C)([C@@H]1OC)n1c3ccccc3c3c4c(c5c6ccccc6n2c5c31)C(=O)NC4 [Staurosporine] + C[C@]1(O)C[C@@H](c2nc(-c3ccc4ccc(-c5ccccc5)nc4c3)c3c(N)nccn32)C1 [Linsitinib] (partner 1 µM)
Outline: as §1

[3] = compound: CN[C@@H]1C[C@H]2O[C@@](C)([C@@H]1OC)n1c3ccccc3c3c4c(c5c6ccccc6n2c5c31)C(=O)NC4 [Staurosporine] + Cc1cc(Nc2cc(N3CCN(C)CC3)nc(Sc3ccc(NC(=O)C4CC4)cc3)n2)n[nH]1 [Tozasertib] (partner 0.1 µM)
Outline: as §1

Row | Cell Line | relative viability (Sulindac + AZD7762; first compound 0.08 µM) | relative viability (Sulindac + AZD7762; first compound 0.253 µM) | relative viability (Sulindac + AZD7762; first compound 0.8 µM) | relative viability (Sulindac + AZD7762; first compound 2.53 µM) | relative viability (Sulindac + AZD7762; first compound 8 µM) | relative viability ([1]; first compound 0.005 µM) | relative viability ([1]; first compound 0.01581 µM) | relative viability ([1]; first compound 0.05 µM) | relative viability ([1]; first compound 0.1581 µM) | relative viability ([1]; first compound 0.5 µM) | relative viability ([2]; first compound 0.005 µM) | relative viability ([2]; first compound 0.01581 µM) | relative viability ([2]; first compound 0.05 µM) | relative viability ([2]; first compound 0.1581 µM) | relative viability ([2]; first compound 0.5 µM) | relative viability ([3]; first compound 0.005 µM) | relative viability ([3]; first compound 0.01581 µM) | relative viability ([3]; first compound 0.05 µM) | relative viability ([3]; first compound 0.1581 µM) | relative viability ([3]; first compound 0.5 µM)
1 | NCI-H1355 | 0.842 | 0.748 | 0.71 | 0.765 | 0.858 | 0.411 | 0.3 | 0.214 | 0.188 | 0.161 | 0.908 | 0.543 | 0.24 | 0.269 | 0.223 | 0.577 | 0.286 | 0.252 | 0.188 | 0.151
2 | NCI-H1395 | 0.387 | 0.378 | 0.4 | 0.401 | 0.401 | 0.53 | 0.438 | 0.406 | 0.393 | 0.306 | 0.947 | 0.427 | 0.381 | 0.377 | 0.289 | 0.705 | 0.614 | 0.37 | 0.331 | 0.265
3 | NCI-H1437 | 1.18 | 1.12 | 1.1 | 1.14 | 1.11 | 0.27 | 0.182 | 0.168 | 0.116 | – | – | 0.43 | 0.255 | 0.128 | 0.0812 | 0.402 | – | 0.381 | 0.325 | 0.199
4 | NCI-H1651 | 0.516 | 0.508 | 0.318 | 0.492 | 0.506 | 0.497 | 0.471 | 0.318 | 0.313 | 0.249 | 0.827 | 0.587 | 0.331 | 0.122 | 0.0924 | 0.66 | 0.675 | 0.371 | 0.237 | 0.185
5 | NCI-H1666 | 0.869 | 0.878 | 0.776 | 0.847 | 0.945 | 0.63 | 0.555 | 0.679 | 0.482 | 0.462 | 0.475 | 0.42 | 0.322 | 0.238 | 0.221 | 0.544 | 0.44 | 0.402 | 0.355 | 0.257
6 | NCI-H1734 | 0.646 | 0.587 | 0.519 | 0.621 | 0.73 | 0.332 | 0.204 | 0.202 | 0.16 | 0.147 | 0.849 | 0.473 | 0.294 | 0.228 | 0.164 | 0.314 | 0.206 | 0.191 | 0.132 | 0.0956
7 | NCI-H1755 | 0.424 | 0.429 | 0.628 | 0.456 | 0.498 | 0.395 | 0.339 | 0.263 | 0.253 | 0.247 | 0.856 | 0.595 | 0.283 | 0.18 | 0.171 | 0.474 | 0.311 | 0.207 | 0.184 | 0.219
8 | NCI-H1793 | 0.41 | 0.537 | – | 0.441 | 0.33 | 0.446 | – | 0.314 | 0.191 | 0.166 | 0.879 | 0.558 | 0.582 | 0.465 | 0.209 | 0.335 | – | 0.299 | 0.182 | 0.186
9 | NCI-H1915 | 0.703 | 0.734 | 0.645 | 0.664 | 0.761 | 0.379 | 0.323 | 0.237 | 0.175 | 0.109 | 1.11 | – | 0.61 | 0.486 | 0.342 | 0.45 | 0.229 | 0.217 | 0.108 | 0.154
10 | NCI-H1944 | 0.519 | 0.382 | 0.526 | 0.512 | 0.551 | 0.319 | 0.242 | 0.223 | 0.203 | 0.204 | 1.39 | – | 0.696 | 0.472 | 0.367 | 0.255 | 0.21 | 0.206 | 0.161 | 0.155
11 | NCI-H1975 | 0.868 | 0.715 | 0.699 | 0.695 | 0.819 | 0.16 | 0.124 | 0.159 | 0.0883 | 0.0924 | 0.323 | 0.229 | – | 0.139 | 0.124 | 0.363 | 0.205 | 0.128 | 0.0804 | 0.0788
12 | NCI-H1993 | 0.717 | 0.854 | 0.606 | 0.695 | 0.854 | 0.776 | 0.685 | 0.526 | 0.395 | 0.339 | 0.761 | 0.634 | 0.605 | 0.439 | 0.55 | 0.639 | 0.535 | 0.434 | 0.491 | 0.429
13 | NCI-H2085 | 0.904 | 0.988 | 0.834 | 0.945 | 0.95 | 0.442 | 0.359 | 0.355 | 0.301 | 0.303 | 0.745 | 0.502 | 0.541 | 0.38 | 0.337 | 0.721 | 0.32 | 0.355 | 0.24 | –
14 | NCI-H2087 | 1.73 | 1.52 | 0.983 | 1.48 | 1.4 | 0.208 | 0.2 | 0.0957 | 0.0793 | 0.0947 | 0.71 | 0.712 | 0.356 | 0.296 | 0.153 | 0.189 | 0.206 | 0.102 | 0.0977 | 0.0926
15 | NCI-H2126 | 1.12 | 1.03 | 0.889 | 1.01 | 1.09 | 0.353 | 0.339 | 0.348 | 0.33 | 0.327 | 0.797 | 0.553 | 0.461 | 0.376 | 0.366 | 0.658 | 0.494 | 0.348 | 0.247 | 0.226
16 | NCI-H2347 | 0.711 | 0.778 | 0.653 | 0.737 | 0.817 | 0.433 | 0.398 | 0.331 | 0.375 | 0.324 | 0.899 | 0.732 | 0.402 | 0.446 | 0.351 | 0.514 | 0.357 | 0.196 | 0.268 | 0.219
